Data taken from article PMC8954350, “Non-Canonical Cannabinoid Receptors with Distinct Binding and Signaling Properties in Prostate and Other Cancer Cell Types Mediate Cell Death” (International Journal of Molecular Sciences, 2022).
Like-named read-outs stand apart in the source and are kept apart here.

How the values were obtained:
[1] = test system: CBRs expressed in DU-145 membranes; assay type: binding, human
Description: (§1) The assay was conducted as previously detailed. […] All binding reactions were conducted in triplicate, in a final volume of 1 mL, and, following mixing, were incubated for 20 min in a 37 °C water bath to achieve equilibrium. After incubation, reactions were terminated by rapid vacuum filtration through Whatman GF/B glass fiber filters (Brandel; Gaithersburg, MD, USA), followed by three washes of 4 mls of ice-cold filtration buffer (50 mM Tris, pH 7.4, and 0.05% bovine serum albumin). Samples were punched out from filter papers into scintillation vials, to which 4 mls of ScintiverseTM-BDR cocktail scintillation fluid (Fisher Scientific; Hampton, NH, USA) was added. Filters were incubated at room temperature for 24 h in scintillation fluid, vortexed, and radioactivity (measured as DPMs) was quantified via a liquid scintillation spectrophotometer (Tri Carb 2100 TR Liquid Scintillation Analyzer, Packard Instruments, Meriden, CT, USA).
(§2) These experiments were conducted to screen well-characterized cannabinoid ligands with high affinity for canonical CB1 and/or CB2Rs for binding to CBRs expressed in prostate cancer cells lines, as detailed in [33]. […] All binding reactions were conducted in triplicate, in a final volume of 1 mL, and, following mixing, were incubated for 20 min in a 37 °C water bath to achieve equilibrium. After incubation, reactions were terminated by rapid vacuum filtration and processed for radioactivity, as detailed in Section 4.5.1.

[2] = test system: CBRs expressed in PC-3 membranes; assay: [^3H]WIN-55,212-2 competitive binding screen, PC-3 membranes; parameters: species or system human
Description: as §1, §2

[3] = test system: DU-145 cells; assay: LDH cytotoxicity, DU-145 cells; assay type: cell-based, human; conditions: 24 h
Description: DU-145 cells were seeded at a density of 130 × 10^3 cells/well in 6-well plates and maintained in an incubator at 37 °C with 5% CO2 for 24 h. […] Treated cells were incubated for an additional 24 h, followed by quantification of LDH release. LDH released from damaged or dying cells oxidizes lactate to produce NADH which then reacts with a water-soluble tetrazolium salt (WST) reagent to produce a yellow-colored product. The intensity of the yellow-colored product was detected with an OD reading at 450 nm (quantified by a BioTek microplate reader interfaced with SoftMax Pro 5.4.5 software; Winooski, VT, USA) and was directly proportional to the amount of LDH released. Percent cytotoxicity was calculated according to the manufacturer’s protocol as the following: % Cytotoxicity=OD450 Supernatant/Supernatant+Lysate

[4] = target: T1, canonical CBRs stably expressed in CHO-hCB2 (Homo sapiens, UniProt P34972); assay: [^35S]GTPγS binding, CHO-hCB2 homogenates; assay type: biochemical; conditions: 10 μM
T1 construct: expressed in transfected cells
Description: Non-specific binding was defined as radioactivity remaining in the presence of 10 μM of non-radioactive GTPγS and subtracted from total binding to determine specific [^35S]GTPγS binding. All binding reactions were conducted in triplicate, in a final volume of 1 mL, and, following mixing, were incubated for 30 min at 30 °C. After incubation, reactions were terminated by rapid vacuum filtration through Whatman GF/B glass fiber filters (Brandel; Gaithersburg, MD, USA), followed by three washes of 4 mls of ice-cold filtration buffer (50 mM Tris, pH 7.4, and 0.05% bovine serum albumin). Samples were punched out from filter papers into scintillation vials, to which 4 mls of ScintiverseTM-BDR cocktail scintillation fluid (Fisher Scientific; Hampton, NH, USA) was added. Filters were incubated at room temperature for 24 h in scintillation fluid, vortexed, and radioactivity (measured as DPMs) was determined via a liquid scintillation spectrophotometer (Tri Carb 2100 TR Liquid Scintillation Analyzer, Packard Instruments, Meriden, CT, USA).

[5] = target: T1, canonical CBRs stably expressed in CHO-hCB2; assay: Adenylyl cyclase modulation in whole CHO-hCB2 cells; assay type: cell-based; conditions: 10 μM
Description: Growth media contained FetalPlex (10%) and 1% pennicillin/streptomycin. Cells were cultured overnight in a humidified incubator maintained at 37 °C with 5% CO2. For some experiments, a subset of wells were treated overnight with pertussis toxin (2 μL/mL) to abolish Gi/Go protein-mediated signaling. […] After [^3H]adenine incubation, media was replaced with 0.5 mL of a Krebs–Ringer–HEPES solution (10 mM HEPES, 110 mM NaCl, 25 mM Glucose, 55 mM Sucrose, 5 mM KCl, 1 mM MgCl2, and 1.8 mM CaCl2 at pH 7.4) containing 0.5 mM IBMX, 10 μM forskolin and a receptor-saturating concentration (10^−5 M) of cannabinoid ligands to be examined. Plates were then floated in a 37 °C water bath for 15 min, followed by termination of reactions by addition of 50 μL of 2.2 N HCl to each well. Then, [^3H]cAMP was isolated by alumina column chromatography and collection in a 4 mL elution volume. Finally, 10 mL of Scintiverse^TM BD Cocktail scintillation fluid (Fisher Scientific; Hampton, NH, USA) was added to eluates and radioactivity (quantified as DPMs) was quantified via a liquid scintillation spectrophotometer (Tri Carb 2100 TR Liquid Scintillation Analyzer, Packard Instruments, Meriden, CT, USA).

[6] = test system: DU-145 cells; assay: ATP-dependent cell viability, DU-145 cells; assay type: cell-based, human; conditions: co-incubation with 10 μM ligand, 24 h
Description: Adenosine 5′-triphosphate (ATP) levels were quantified as a measure of DU-145 cell viability in response to cannabinoid treatement using an ATP-luciferase-based bioluminescence assay kit (CellTiter-Glo®, Sigma, MO, USA) and BioTek microplate reader (Winooski, VT, USA). DU-145 cells were seeded at a density of 8 × 10^3 cells/well in a 96-well plate and incubated for 24 h at 37 °C with 5% CO2. The next day, cells were treated with either vehicle or experimental drugs (10 or 50 μM) and incubated for another 24 h at 37 °C with 5% CO2. ATP levels were assessed following incubation by interpolation from an ATP standard curve according to the manufacturer’s protocol, as described previously.

[7] = test system: DU-145 cells; assay: Mitochondrial membrane potential (JC-1 staining), DU-145 cells; assay type: cell-based, human; conditions: 24 h; for mitochondrial membrane potential (MMP) depolarization: JC-1
[8] = test system: CBRs expressed in PC-3 cells; assay: [^3H]CP-55,940 competitive binding screen, PC-3 membranes; parameters: species or system human; conditions: 1 μM ligand, 0.2 nM radioligand
Description: as §1

[9] = test system: canonical human CB2Rs (CHO-hCB2); parameters: method as in PMID 34592231; conditions: 1 μM ligand, 0.2 nM radioligand, CHO-hCB2 membranes; cited from earlier work
[10] = test system: CBRs expressed in C6-glioma cells; assay: [^3H]WIN-55,212-2 competitive binding screen, C6-glioma membranes; parameters: species or system mouse; conditions: 1 μM ligand, 1 nM radioligand
Description: as §1

[11] = test system: canonical human CB1Rs (CHO-hCB1); parameters: method as in PMID 34592231; conditions: 1 μM ligand, 0.2 nM radioligand, CHO-hCB1 membranes; cited from earlier work
[12] = test system: CBRs expressed in C6-glioma cells; assay: [^3H]CP-55,940 competitive binding screen, C6-glioma membranes; parameters: species or system mouse; conditions: 1 μM ligand, 0.2 nM radioligand
Description: as §1

[13] = test system: CBRs expressed in HeLa cells; assay: [^3H]CP-55,940 competitive binding screen, HeLa membranes; parameters: species or system human; conditions: 1 μM ligand, 0.2 nM radioligand
Description: as §1

[14] = test system: canonical human CB2Rs (CHO-hCB2); parameters: method as in PMID 34592231; conditions: 1 μM ligand, 1 nM radioligand, CHO-hCB2 membranes; cited from earlier work
[15] = test system: CBRs expressed in DU-145 cells; assay: [^3H]CP-55,940 competitive binding screen, DU-145 membranes; parameters: species or system human; conditions: 1 μM ligand, 0.2 nM radioligand
Description: as §1

[16] = test system: CBRs expressed in PC-12 cells; assay: [^3H]CP-55,940 competitive binding screen, PC-12 membranes; parameters: species or system rat; conditions: 1 μM ligand, 0.2 nM radioligand
Description: as §1

[17] = test system: canonical human CB1Rs (CHO-hCB1); parameters: method as in PMID 34592231; conditions: 1 μM ligand, 1 nM radioligand, CHO-hCB1 membranes; cited from earlier work
[18] = test system: CBRs expressed in PC-12 cells; assay: [^3H]WIN-55,212-2 competitive binding screen, PC-12 membranes; parameters: species or system rat; conditions: 1 μM ligand, 1 nM radioligand
Description: as §1

[19] = target: T2, canonical mouse CB1Rs (mouse brain) (Mus musculus, UniProt P47746); assay type: binding; conditions: 1 μM ligand, mouse brain membranes
T2 construct: membranes prepared from mouse brain containing a high density of mouse CB1 receptors (mCB1); from tissue; host or cells: mouse brain membrane homogenate
Description: as §1

[20] = test system: CBRs expressed in HeLa cells; assay: [^3H]WIN-55,212-2 competitive binding screen, HeLa membranes; parameters: species or system human; conditions: 1 μM ligand, 1 nM radioligand
Description: as §1

T1 sequence (P34972 whole entry): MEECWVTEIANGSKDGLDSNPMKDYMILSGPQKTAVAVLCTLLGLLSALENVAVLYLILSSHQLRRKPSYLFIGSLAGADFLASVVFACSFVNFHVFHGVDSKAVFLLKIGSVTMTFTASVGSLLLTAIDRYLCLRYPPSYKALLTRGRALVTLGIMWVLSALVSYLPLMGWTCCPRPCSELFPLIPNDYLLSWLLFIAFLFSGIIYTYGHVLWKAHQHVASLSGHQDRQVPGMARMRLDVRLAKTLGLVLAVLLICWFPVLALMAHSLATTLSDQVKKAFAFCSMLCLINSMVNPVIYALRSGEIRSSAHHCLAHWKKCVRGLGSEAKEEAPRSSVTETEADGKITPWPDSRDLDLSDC
T2 sequence (P47746 whole entry): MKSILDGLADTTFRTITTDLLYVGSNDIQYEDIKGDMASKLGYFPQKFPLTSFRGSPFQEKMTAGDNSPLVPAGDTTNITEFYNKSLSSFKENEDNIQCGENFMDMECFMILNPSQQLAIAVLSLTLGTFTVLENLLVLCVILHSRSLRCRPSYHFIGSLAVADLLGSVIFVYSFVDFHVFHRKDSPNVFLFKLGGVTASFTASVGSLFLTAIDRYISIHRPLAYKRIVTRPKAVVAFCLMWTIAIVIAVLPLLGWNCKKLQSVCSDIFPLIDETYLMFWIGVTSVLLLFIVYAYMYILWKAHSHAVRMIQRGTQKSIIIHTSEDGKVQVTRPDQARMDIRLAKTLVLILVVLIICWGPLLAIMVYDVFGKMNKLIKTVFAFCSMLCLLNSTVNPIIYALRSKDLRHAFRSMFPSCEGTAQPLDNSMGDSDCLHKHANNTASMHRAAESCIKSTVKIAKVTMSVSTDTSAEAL

COc1ccc(C(=O)c2c(C)n(CCN3CCOCC3)c3cc(I)ccc23)cc1 [AM-630]
displacement of [^3H]WIN-55,212-2 [1]: failed to displace | displacement of [^3H]WIN-55,212-2 ([2]; 1 μM ligand, 1 nM radioligand, PC-3 membranes): failed to displace | LDH release ([3]; 10 μM): No significant effects | increase in LDH release ([3]; 50 μM): neither low (10 μM) nor high (50 μM) concentrations of WIN-55,212-2, AM-251 or AM-630 altered LDH release | attenuation of GW-405833 (50 μM)-induced LDH release ([3]; co-incubation with 10 μM ligand): significantly attenuated | decrease in basal G protein activity ([^35S]GTPγS binding) [4]: 26.15 ± 5.15% | enhancement of forskolin-stimulated intracellular cAMP levels [5]: 117 ± 27.1% | attenuation of GW-405833 (50 μM)-induced reduction in ATP concentrations [6]: significantly attenuated | MMP on co-incubation with GW-405833 (10 μM) ([7]; 10 μM ligand co-incubated): MMP was not significantly reduced from vehicle-treated levels | mitochondrial membrane potential (MMP) depolarization ([7]; 10 μM): had no effect on MMP | mitochondrial membrane potential (MMP) depolarization ([7]; 50 μM): had no effect on MMP

CCCCCCC(C)(C)c1ccc([C@@H]2C[C@H](O)CC[C@H]2CCCO)c(O)c1 [CP-55,940]
displacement of [^3H]CP-55,940 [8]: neither the non-selective CBR ligand CP-55,940 nor WIN-55,212-2 produced significant displacement | displacement of [^3H]WIN-55,212-2 [1]: only WIN-55,212-2, and not CP-55,940, significantly displaced | displacement of [^3H]CP-55,940 [9]: produced near or complete displacement | displacement of [^3H]WIN-55,212-2 (Figure 1B) [10]: only WIN-55,212-2, and not CP-55,940, significantly displaced | displacement of [^3H]WIN-55,212-2 [2]: only WIN-55,212-2, and not CP-55,940, significantly displaced | displacement of [^3H]CP-55,940 [11]: produced near or complete displacement | displacement of [^3H]CP-55,940 [12]: neither the non-selective CBR ligand CP-55,940 nor WIN-55,212-2 produced significant displacement | displacement of [^3H]CP-55,940 [13]: neither the non-selective CBR ligand CP-55,940 nor WIN-55,212-2 produced significant displacement | displacement of [^3H]WIN-55,212-2 (Figure 1B) [14]: produced near or complete displacement | displacement of [^3H]CP-55,940 [15]: neither the non-selective CBR ligand CP-55,940 nor WIN-55,212-2 produced significant displacement | displacement of [^3H]CP-55,940 [16]: neither the non-selective CBR ligand CP-55,940 nor WIN-55,212-2 produced significant displacement | displacement of [^3H]WIN-55,212-2 (Figure 1B) [17]: produced near or complete displacement | displacement of [^3H]WIN-55,212-2 (Figure 1B) [18]: only WIN-55,212-2, and not CP-55,940, significantly displaced | displacement of [^3H]CP-55,940 ([19]; 0.2 nM radioligand): produced near or complete displacement | displacement of [^3H]WIN-55,212-2 (Figure 1B) ([19]; 1 nM radioligand): produced near or complete displacement | displacement of [^3H]WIN-55,212-2 (Figure 1B) [20]: only WIN-55,212-2, and not CP-55,940, significantly displaced
